# Laboratory results: US20250340552A1, “COMPOUNDS, COMPOSITIONS AND METHODS OF TREATING DISORDERS” (HOTSPOT THERAPEUTICS, INC., priority 2022, published 2025)
# Where two headings read alike, the source gives them in different places.
# Biological target: T1, Cbl-B (Homo sapiens, UniProt Q13191)
# T1 construct: MSD-Based Assay for Degradation of Cbl-B in THP-1 Cells; endogenous in cells; host or cells: THP-1 (title) / Jurkat (protocol text)
# Test: MSD-based assay for degradation of Cbl-B in THP-1 cells
# Type: cell-based
# Outline: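 Reported Dmax bins are A >70%, B 50–70%, C 30–50% and D <30%, from an electrochemiluminescence (MSD) sandwich assay of Cbl-B in cell lysates. THP-1 cells were exposed to compounds for 24 hours before lysis.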
# [1] = Cbl-B degradation, Jurkat cells seeded (heading: THP-1 cells), 24 hours incubation, MSD readout
# [2] = Cbl-B degradation, Jurkat cells seeded (heading: THP-1 cells), 24 hours incubation, MSD readout, read-out: Dmax
# T1 sequence (Q13191 whole entry): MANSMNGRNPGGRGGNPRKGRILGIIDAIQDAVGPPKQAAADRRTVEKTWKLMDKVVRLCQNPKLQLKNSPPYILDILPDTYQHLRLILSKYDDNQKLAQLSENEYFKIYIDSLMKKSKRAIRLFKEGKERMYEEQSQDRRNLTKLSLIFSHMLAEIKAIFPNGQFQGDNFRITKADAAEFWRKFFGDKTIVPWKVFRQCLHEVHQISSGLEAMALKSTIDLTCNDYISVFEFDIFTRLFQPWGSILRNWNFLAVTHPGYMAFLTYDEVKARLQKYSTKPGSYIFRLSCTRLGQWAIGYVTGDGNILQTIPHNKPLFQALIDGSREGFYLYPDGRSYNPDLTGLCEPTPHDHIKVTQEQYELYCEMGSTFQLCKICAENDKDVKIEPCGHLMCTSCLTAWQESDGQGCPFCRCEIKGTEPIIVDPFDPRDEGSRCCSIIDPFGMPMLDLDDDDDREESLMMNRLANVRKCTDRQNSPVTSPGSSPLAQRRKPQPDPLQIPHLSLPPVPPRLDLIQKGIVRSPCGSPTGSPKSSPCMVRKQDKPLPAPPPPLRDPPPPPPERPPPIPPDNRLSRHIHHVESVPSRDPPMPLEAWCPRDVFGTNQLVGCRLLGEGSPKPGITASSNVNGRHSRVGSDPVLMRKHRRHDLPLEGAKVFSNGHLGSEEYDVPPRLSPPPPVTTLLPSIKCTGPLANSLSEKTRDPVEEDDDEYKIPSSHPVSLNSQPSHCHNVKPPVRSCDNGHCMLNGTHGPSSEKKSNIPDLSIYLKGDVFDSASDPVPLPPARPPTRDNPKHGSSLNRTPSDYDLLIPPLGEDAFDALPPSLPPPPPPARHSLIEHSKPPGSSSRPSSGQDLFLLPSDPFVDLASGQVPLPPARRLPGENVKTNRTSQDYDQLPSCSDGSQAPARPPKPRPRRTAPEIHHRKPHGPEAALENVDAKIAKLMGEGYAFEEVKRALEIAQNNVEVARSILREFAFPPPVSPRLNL
SMILES,DC50 [1] [nM],Dmax [2] [%],Dmax (THP-1) [%]
Cn1cnnc1[C@@H](c1cccc(-n2cc3c(C(F)(F)F)cc(CN4CCC[C@H](OCCOCc5ccc(COCCNc6cccc7c6C(=O)N(C6CCC(=O)NC6=O)C7=O)cc5)CC4)cn3c2=O)c1)C1CCC1 (stereo partly shown) [Compound 32],30 to 300,30 to 50,–
CN(C(=O)c1ccc(CN2CCN(c3ccc4c(c3)CN([C@H]3CCC(=O)NC3=O)C4=O)CC2)cc1)C1CCN(Cc2cc(C(F)(F)F)c3cn(-c4cccc([C@H](c5nncn5C)C5CCC5)c4)c(=O)n3c2)CC1 [Compound 160],< 30,> 70,–
"Cn1cnnc1[C@@H](c1cccc(N2Cc3c(cc(CN4CCC[C@@H](OCc5ccc(CC6CCN(c7ccc8c(c7)CN([C@H]7CCC(=O)NC7=O)C8=O)CC6)cc5)C4)cc3C(F)(F)F)C2=O)c1)C1CCC1 (single isomer, unassigned) [Compound 194]",30 to 300,30 to 50,–
Cn1cnnc1[C@@H](c1cccc(-n2cc3c(C(F)(F)F)cc(CN4CCC(COCc5ccc(CN6CCN(c7ccc8c(c7)CN([C@H]7CCC(=O)NC7=O)C8=O)CC6)cc5)CC4)cn3c2=O)c1)C1CCC1 [Compound 102],30 to 300,> 70,–
CO[C@H]1C[C@](c2cccc(-n3cc4c(C(F)(F)F)cc(CN5CCN(CCc6ccc(N7CCN(c8ccc9c(c8)CN([C@@H]8CCC(=O)NC8=O)C9=O)CC7)cc6)CC5)cn4c3=O)c2)(c2nncn2C)C1 [Compound 251],30 to 300,> 70,–
CO[C@H]1C[C@@](c2cccc(-n3cc4c(C(F)(F)F)cc(CN5CCC(CN(C)C(=O)c6ccc(N7CCN(c8ccc9c(c8)CN([C@@H]8CCC(=O)NC8=O)C9=O)CC7)cc6)CC5)cn4c3=O)c2)(c2nncn2C)C1 [Compound 167],1000 to 10000,< 30,–
CO[C@H]1C[C@@](c2cccc(-n3cc4c(C(F)(F)F)cc(CN5CCC(OCCN6CCC(CN7CCN(c8ccc9c(c8)CN([C@H]8CCC(=O)NC8=O)C9=O)CC7)CC6)CC5)cn4c3=O)c2)(c2nncn2C)C1 [Compound 74],1000 to 10000,50 to 70,–
Cn1cnnc1CC1(c2cccc(-n3cc4c(C(F)(F)F)cc(-c5nccn5CCOCCN5CCC(CN6CCN(c7ccc8c(c7)CN([C@@H]7CCC(=O)NC7=O)C8=O)CC6)CC5)cn4c3=O)c2)COC1 [Compound 99],> 10000,< 30,–
CN(CCN1CCC(CN2CCN(c3cc4c(cc3F)C(=O)N(C3CCC(=O)NC3=O)C4=O)CC2)CC1)Cc1cc(C(F)(F)F)c2cn(-c3cccc(C4(Cc5nncn5C)COC4)c3)c(=O)n2c1 (stereo not shown) [Compound 15],> 10000,< 30,–
CN(CCOC1CCN(Cc2cc(C(F)(F)F)c3cn(-c4cccc([C@H](c5nncn5C)C5CCC5)c4)c(=O)n3c2)CC1)C(=O)c1ccc(N2CCC(c3ccc4c(c3)CN([C@@H]3CCC(=O)NC3=O)C4=O)CC2)cc1 [Compound 151],30 to 300,50 to 70,–
CN(CCOC1CCN(Cc2cc(C(F)(F)F)c3cn(-c4cccc([C@H](c5nncn5C)C5CCC5)c4)c(=O)n3c2)CC1)C(=O)c1ccc(N2CCN(c3ccc4c(c3)CN([C@H]3CCC(=O)NC3=O)C4=O)CC2)cc1 [Compound 34],30 to 300,–,> 70
"Cn1cnnc1CC1(c2cccc(-n3cc4c(C(F)(F)F)cc(CN5CCC(OCc6ccc(C(=O)N7CCN(c8ccc9c(c8)CN([C@@H]8CCC(=O)NC8=O)C9=O)CC7)cc6)CC5)cn4c3=O)c2)COC1 (single isomer, unassigned) [Compound 243]",30 to 300,> 70,–
"Cn1cnnc1[C@@H](c1cccc(-n2cc3c(C(F)(F)F)cc(-c4nccn4CCOCCN4CCC(CN5CCN(c6ccc7c(c6)CN([C@H]6CCC(=O)NC6=O)C7=O)CC5)CC4)cn3c2=O)c1)C1CCC1 (single isomer, unassigned) [Compound 98]",> 10000,< 30,–
"Cn1cnnc1[C@@H](c1cccc(-n2cc3c(C(F)(F)F)cc(CN4CCC[C@@H](OCCN5CCC(CN6CCN(c7ccc8c(c7)CN([C@@H]7CCC(=O)NC7=O)C8=O)CC6)CC5)C4)cn3c2=O)c1)C1CCC1 (single isomer, unassigned) [Compound 53]",1000 to 10000,–,50 to 70
